# Results reported in PMC3534213, “γ-Secretase Modulators: Can We Combine Potency with Safety?” (International Journal of Alzheimer's Disease, 2012).
# Columns and labels:
# [1] = set-up: method as in PMID 22468891; conditions: Phase III clinical trials; cited from earlier work
# [2] = cited from earlier work
# CSF Aβ42 [3] = system: CSF Aβ42; set-up: method as in PMID 22072214; conditions: dog, single dose of 80 mg/kg; cited from earlier work
# [4] = set-up: method as in earlier work; conditions: high-dose group, rats; cited from earlier work
# plasma Aβ42 = system: plasma Aβ42; set-up: method as in earlier work; conditions: human, 400 mg dose; cited from earlier work
# [5] = set-up: method as in PMID 22072214; conditions: repeated dosing in rat and dog; cited from earlier work
# [6] = Free fraction in brain (brain tissue binding, Fub); assay type: in vitro ADME
# plaque load = system: plaque load; set-up: method as in PMID 21232036; conditions: chronic treatment of transgenic mice, exposure below concentrations required for Aβ42 reduction after a single dose; cited from earlier work
# [7] = Free fraction in plasma (plasma protein binding); assay type: in vitro ADME
# brain Aβ42 = system: brain Aβ42; set-up: method as in PMID 22429469; conditions: 100 mg/kg oral dose; cited from earlier work
# γ-secretase = target: T1, γ-secretase (Homo sapiens, UniProt P49768); assay: Cellular Aβ42 lowering in SKNBE2 human neuroblastoma cells carrying hAPP 695 wild-type; assay type: cell-based; conditions: cellular assay, determined internally
# T1 construct: screening was carried out using SKNBE2 human neuroblastoma cells carrying the hAPP 695 wild-type; endogenous in cells; host or cells: SKNBE2 human neuroblastoma cells carrying hAPP 695 wild-type
# CSF Aβ42 [8] = assay: Dog model combining PK/PD data with early observations of liver toxicity; assay type: in vivo; conditions: 20 mg/kg p.o.
# Description: (§1) For the cellular in vitro activity of our own compounds, screening was carried out using SKNBE2 human neuroblastoma cells carrying the hAPP 695 wild-type as described in [15]. For a description of the mouse in vivo experiments, see references; for details on the dog in vivo experiments, see [17].
# (§2) Both compounds have been tested in advanced animal models, including repeated dosing in rat and dog. […] Based on these findings, further development was halted. Since then, the dog model combining PK/PD data with early observations of liver toxicity is routinely used in our discovery program to triage compounds [17]. Both JNJ-40418677 and JNJ-42601572 contain a considerable number of conjugated aromatic rings and are characterized by high lipophilicity and molecular weight. In recent years a number of publications have appeared relating such properties with a low probability of success in clinical development. Catchy phrases like “molecular obesity” and “escape from flatland” have been used to describe the issues associated with high molecular weight and number of (hetero) aromatic rings in molecules. Based on analysis of compound properties and their attrition or success in (pre)clinical development, guidelines have been formulated and proposed which can be applied during optimization efforts in medicinal chemistry programs to strive towards more drug-like compounds. The concept of ligand efficiency (LE) is now routinely applied in the drug discovery process. It is defined as the binding energy towards a biological target per (heavy = nonhydrogen) atom in a compound. Since most assays are not directly measuring binding energy, IC50 values are often used to make a relative comparison of the LE of compounds. By working towards a high LE, molecular weight can be kept in control while optimizing pharmacological activity. […]
# [9] = as above; assay type: in vivo
# Description: as §1, §2
# [10] = Limited tolerance study in rats; assay type: in vivo; conditions: two-week daily dose of 200 mg/kg
compound,measurement,setting,value
"CC(C)[C@H](O)C(=O)N[C@@H](C)C(=O)N[C@@H]1C(=O)N(C)CCc2ccccc21 [Compound 1, semagacestat]",effect on cognition,[1],statistically significant decline in cognition
same,risk of skin cancer,[1],increased risk of skin cancer
"C[C@@H](C(=O)O)c1ccc(-c2ccccc2)c(F)c1 [Compound 2, tarenflurbil]",tolerability in clinical trials,[2]; high dosage,well tolerated
same,phase III clinical trial outcome,[2]; phase III,negative results
COc1cc(/C=C2\CCCN([C@@H](C)c3ccc(F)cc3)C2=O)ccc1-n1cnc(C)c1 [Compound 3],gene-expression profile in liver tissue,CSF Aβ42 [3],large changes in gene-expression profile
same,liver parameters,CSF Aβ42 [3],liver parameter changes
same,lenticular opacity,[4],lenticular opacity was observed
same,maximum reduction of plasma Aβ42 levels,plasma Aβ42,~ 50%
CC(C)C[C@H](C(=O)O)c1cc(-c2ccc(C(F)(F)F)cc2)cc(-c2ccc(C(F)(F)F)cc2)c1 [Compound 4],liver toxicity signs (bilirubin and ALT/AST increases),[5],early signs of liver toxicity were noted
same,fraction unbound,[6],< 0.001
same,effect on plaque load,plaque load,preventive effect on plaque load
same,fraction unbound,[7],< 0.001
COc1nc(C(=O)N[C@H]2COc3ccc(Cl)c(F)c32)ccc1-n1cnc(C)c1 [Compound 15],lowering of Aβ42 levels in Guinea pig brain,brain Aβ42,36%
COc1nc(-c2nc3n(n2)CCO[C@H]3c2ccccc2OC(F)(F)F)ccc1-n1cnc(C)c1 [Compound 16],fraction unbound,[6],0.039
same,IC50,γ-secretase,56 nM
same,bilirubin or ALT levels,CSF Aβ42 [8],no increases in bilirubin or ALT levels were observed
same,concentration at 4 h,"[9]; CSF, 20 mg/kg oral, 4 h, read-out: CSF compound concentration",0.524 ± 0.062 µM
same,Cmax,"[9]; plasma, po, 20 mg/kg",24 ± 3 µM
same,signs of liver toxicity,[10],did not lead to overt signs of liver toxicity
